Test results taken from US7638509B2, “Diene compounds and formulations” (priority 2003, dated 2009).

Tests used:
wild-type AR = biological target: T1, wild-type AR (Homo sapiens, UniProt P10275); test: AR transcription, MMTV-Luc reporter in COS-1 cells co-transfected with pSG5-AR; type: cell-based; parameters: expressed in transfected cells; host or cells: COS-1
T1 sequence (P10275 1-920): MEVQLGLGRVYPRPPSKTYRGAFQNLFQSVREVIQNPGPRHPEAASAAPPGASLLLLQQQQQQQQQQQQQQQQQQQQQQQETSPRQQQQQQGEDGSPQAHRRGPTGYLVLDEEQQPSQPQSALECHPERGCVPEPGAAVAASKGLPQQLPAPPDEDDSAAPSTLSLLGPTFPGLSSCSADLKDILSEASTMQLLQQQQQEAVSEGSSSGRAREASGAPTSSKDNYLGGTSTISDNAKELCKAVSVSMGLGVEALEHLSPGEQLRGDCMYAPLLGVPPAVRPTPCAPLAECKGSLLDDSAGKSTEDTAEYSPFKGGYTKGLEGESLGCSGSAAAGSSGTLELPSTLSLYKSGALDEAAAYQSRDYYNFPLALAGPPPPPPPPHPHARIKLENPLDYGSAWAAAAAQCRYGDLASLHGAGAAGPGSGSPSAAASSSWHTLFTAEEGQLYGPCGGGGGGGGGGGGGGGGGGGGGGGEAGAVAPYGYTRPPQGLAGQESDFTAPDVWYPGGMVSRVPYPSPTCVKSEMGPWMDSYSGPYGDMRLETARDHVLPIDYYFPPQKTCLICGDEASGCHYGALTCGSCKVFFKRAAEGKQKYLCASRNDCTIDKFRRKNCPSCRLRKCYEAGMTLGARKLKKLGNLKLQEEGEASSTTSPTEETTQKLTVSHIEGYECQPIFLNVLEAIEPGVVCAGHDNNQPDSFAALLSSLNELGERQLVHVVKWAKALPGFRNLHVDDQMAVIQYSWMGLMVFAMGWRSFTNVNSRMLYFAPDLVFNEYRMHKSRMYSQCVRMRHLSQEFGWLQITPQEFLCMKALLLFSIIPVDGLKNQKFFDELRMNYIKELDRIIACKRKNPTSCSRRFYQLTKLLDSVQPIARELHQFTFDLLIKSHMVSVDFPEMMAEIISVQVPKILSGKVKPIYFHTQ
Method: Cell Culture, Transfection, and Reporter Gene Assay. The human prostate cancer cell lines, LNCaP, PC-3, and DU145, and non-prostate cancer cell line COS-1 were maintained in RPMI or Dulbecco's modified Eagle's medium (DMEM) (Life Technologies) supplemented with 10% fetal bovine serum (FBS). […] Briefly, cells seeded to reach a density of 50-60% confluence in 12 well tissue culture plates were transfected with 1.5 μg of DNA according to “SuperFect transfection” instructions (Qiagen). After 2-3 h incubation, cells were treated with medium supplemented with charcoal-stripped FBS containing either ethanol or ligands for 24 h. The cells were then harvested and whole cell extracts were used for Luc assay. The Luc activity was determined using a Dual-Luciferase Reporter Assay System (Promega) and luminometer.
The pSG5-AR was co-transfected in COS-1 cells. […] Values were obtained from the mean±SD of at least three determinations. DU145 cells were transfected with the pSG5-AR and MMTV-Luc in the presence or absence of pSG5-ARA70. […] Values were obtained for the mean±SD of at least three determinations.

[1] = biological target: T2, AR with coactivator ARA70 (Homo sapiens, UniProt P10275); test: ARA70 enhancement of AR transactivation, MMTV-Luc in DU145 cells with pSG5-AR and pSG5-ARA70; type: cell-based; conditions: DU145, pSG5-AR + MMTV-Luc with or without pSG5-ARA70
T2 construct: expressed in transfected cells; host or cells: DU145
T2 sequence (P10275 1-920): T1 sequence (P10275 1-920)
Method: Cell Culture, Transfection, and Reporter Gene Assay. The human prostate cancer cell lines, LNCaP, PC-3, and DU145, and non-prostate cancer cell line COS-1 were maintained in RPMI or Dulbecco's modified Eagle's medium (DMEM) (Life Technologies) supplemented with 10% fetal bovine serum (FBS). Transfections and luciferase (Luc) assays were performed as previously described (Miyamoto, H., Yeh, S., Wilding, G. & Chang, C. (1998) Proc. Natl. Acad. Sci. USA 95, 7379-7384; Miyamoto, H., Rahman, M., Takatera, H., Kang, H.-Y., Yeh, S., Chang, H.-C., Nishimura, K., Fujimoto, N. & Chang, C. (2002) J. Biol. Chem. 277, 4609-4617). Briefly, cells seeded to reach a density of 50-60% confluence in 12 well tissue culture plates were transfected with 1.5 μg of DNA according to “SuperFect transfection” instructions (Qiagen). After 2-3 h incubation, cells were treated with medium supplemented with charcoal-stripped FBS containing either ethanol or ligands for 24 h. The cells were then harvested and whole cell extracts were used for Luc assay. The Luc activity was determined using a Dual-Luciferase Reporter Assay System (Promega) and luminometer.
The effects of ADEK on the DHT-induced transcriptional activity of AR was examined in COS-1 or LNCaP cells transfected with MMTV-Luc. The pSG5-AR was co-transfected in COS-1 cells. […] Values were obtained from the mean±SD of at least three determinations. […]

`CC(=O)O[C@H]1C=C[C@@]2(C)C(=CC[C@@H]3[C@@H]2CC[C@@]2(C)[C@H]3CCC23OCCO3)C1` [ADEK, 3β-acetoxy-17,17-ethylenedioxyandrosta-1,5-diene] was tested, and the “relative Luc activity (DHT control = 100%)” value (wild-type AR; COS-1, 1 nM DHT, compound at 0.01 μM) was “about 75%”, the “relative Luc activity (DHT control = 100%)” value (wild-type AR; COS-1, 1 nM DHT, compound at 0.1 μM) was “about 60%” and the “DHT-induced wild-type AR transcription suppressed to (relative Luc activity, DHT = 100%)” value (wild-type AR; COS-1, 1 nM DHT, compound at 1 μM) was 21%. The “androgenic activity on wild-type AR transcription (in words)” value (wild-type AR; COS-1, compared with HF and casodex) was “lower androgenic activity” and the “enhancement of AR transactivation by ARA70 in the presence of compound” value [1] was under 2 fold.
